Reference: paper PMC7516017, “Organoids to Study Intestinal Nutrient Transport, Drug Uptake and Metabolism – Update to the Human Model and Expansion of Applications” (Frontiers in Bioengineering and Biotechnology, 2020)
Where two headings read alike, the source gives them in different places.

Legend:
human duodenal organoids [1] = assay: Live-cell imaging of intracellular calcium (Fura-2-AM); assay type: cell-based; conditions: Fura-2-AM 7μM, ratio F(λex340nm)/F(λex380nm), 100µM ATP
Description: (§1) 1.9. Imaging of intracellular calcium concentrations
(§2) Concentrations of substances used were: 100µM ATP (Sigma), 50mM glucose, and 50mM fructose. Using a Leica DMI6000 B inverted […]
(§3) analyzed using the Leica Application Suite Advanced Fluorescence software. Imaging of intracellular calcium concentrations was performed in human duodenal organoids.
(§4) Of note, the B27 supplement contains a n/a […]
(§5) incubated for the indicated times. Controls were not pulsed with insulin. 2. Addition of butyrate: murine colonic organoids were grown for 6 days in IC. 100µM carnitine and 1mM butyrate were added and organoids were incubated for the indicated times. Time point zero was sampled immediately after addition of butyrate and carnitine. Control organoids were not exposed to butyrate. 3. Addition of d13- […]
(§6) organoids were incubated for the indicated times. Controls were exposed to carnitine and BSA without […]
(§7) 5min) to remove remaining matrigel.
(§8) Comfort; Eppendorf, Hamburg, Germany). The samples were dried in nitrogen gas and reconstituted […]
(§9) To determine amino acid and
(§10) Analytics, Zwingen, Switzerland) was used. Data analysis was performed using Analyst 1.7® and SCIEX OS 1.4 software (Sciex).

[2] = test system: sodium-proton exchangers (NHEs); assay: Live-cell imaging of intracellular pH after Gly-Sar with NHE inhibitors; assay type: cell-based, mouse; conditions: BCECF-AM, murine small intestinal organoids, 50mM Gly-Sar, 100µM Amilorid or 50µM S1611
Description: (§11) Intestinal organoids – Transport & Metabolism […]
(§12) addition of fructose. Following incubation, substrate/inhibitor solutions were removed from intact […]
centrifuged (300g, 10min). For “broken up” organoids, dissociated organoids were centrifuged (300g, 3min) and washed three times with PBS. […]
(§13) 1.8. Imaging of intracellular acidification
(§14) 100µM Amilorid, and 50µM S1611 (Sanofi Aventis). Image series were captured using a Leica […]
(§15) Calculations and imaging data […]
(§16) intestinal Wt organoids or in human duodenal organoids.

Pept1 [3] = molecular target: T1, Pept1 (Mus musculus, UniProt Q9JIP7); assay: Competition assay using radiolabeled Gly-Sar, murine small intestinal organoids (wild type and Pept1 knockout); assay type: in vitro ADME; conditions: 13mM cyclic hexapeptide (solubilized in DMSO) versus 5mM Gly-Sar (14C tracer 1mM); organoids from wild type and Pept1-deficient mice; HEPES-saline buffer pH 6.5, 37 °C; liquid scintillation; n = 5–6; Figure 2G
T1 construct: endogenous in cells; host or cells: murine small intestinal organoids (C57BL/6 wild type; Pept1-/- organoids as control)
T1 sequence (Q9JIP7 1-709): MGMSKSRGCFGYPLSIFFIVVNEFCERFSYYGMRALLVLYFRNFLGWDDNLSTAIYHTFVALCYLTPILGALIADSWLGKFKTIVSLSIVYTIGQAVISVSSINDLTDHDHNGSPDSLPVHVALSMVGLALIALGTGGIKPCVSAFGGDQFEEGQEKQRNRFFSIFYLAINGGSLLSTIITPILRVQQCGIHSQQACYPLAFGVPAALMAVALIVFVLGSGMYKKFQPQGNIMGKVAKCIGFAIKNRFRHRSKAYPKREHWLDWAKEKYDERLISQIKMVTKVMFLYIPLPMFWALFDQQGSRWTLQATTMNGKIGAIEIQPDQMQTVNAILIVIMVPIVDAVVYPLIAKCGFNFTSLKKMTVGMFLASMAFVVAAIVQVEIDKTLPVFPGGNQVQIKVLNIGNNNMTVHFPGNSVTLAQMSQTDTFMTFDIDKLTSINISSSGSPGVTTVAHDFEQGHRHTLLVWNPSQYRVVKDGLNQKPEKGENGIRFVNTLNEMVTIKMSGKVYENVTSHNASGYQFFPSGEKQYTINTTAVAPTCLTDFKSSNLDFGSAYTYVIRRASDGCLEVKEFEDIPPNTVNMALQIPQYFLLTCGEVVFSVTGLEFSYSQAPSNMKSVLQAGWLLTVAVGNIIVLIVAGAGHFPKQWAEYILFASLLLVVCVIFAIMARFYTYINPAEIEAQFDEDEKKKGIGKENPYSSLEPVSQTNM
Description: as §11, §12
centrifuged (300g, 10min). For “broken up” organoids, dissociated organoids were centrifuged (300g, 3min) and washed three times with PBS. During these steps, PBS for washing contained glucose and […]
3 ml of Bioscint® Scintillation […]
organoids was quantified using a liquid scintillation counter (PerkinElmer). Residual amounts of all […]
in dissolved organoids derived from the ileum.
(§17) 1.7. Peptide and drug transport studies
The protocol for peptide and
(American Radiolabeled Chemicals). Final substrate concentrations used were: 5mM Gly-Sar […]
Weinmüller and Horst Kessler, and solubilized in DMSO. Peptide transporter studies were performed […]
as §13, §14, §15, §16

Caco-2 = conditions: cited from earlier work
Description: (§18) As mentioned before, peptide transporters also play a role in drug uptake, including peptidomimetics. […] For example, peptidomimetics have been designed for cancer therapy, e.g., to induce apoptosis ([Walensky et al., 2004]), sensitize cancer cells to chemotherapeu ...

PEPT1 [4] = molecular target: T2, PEPT1 (Homo sapiens, UniProt P46059); assay: Competition assay using radiolabeled Gly-Sar, human duodenal organoids; conditions: HEPES-saline buffer pH 6.5, 37 °C, liquid scintillation, n = 5–6
T2 sequence (P46059 1-708): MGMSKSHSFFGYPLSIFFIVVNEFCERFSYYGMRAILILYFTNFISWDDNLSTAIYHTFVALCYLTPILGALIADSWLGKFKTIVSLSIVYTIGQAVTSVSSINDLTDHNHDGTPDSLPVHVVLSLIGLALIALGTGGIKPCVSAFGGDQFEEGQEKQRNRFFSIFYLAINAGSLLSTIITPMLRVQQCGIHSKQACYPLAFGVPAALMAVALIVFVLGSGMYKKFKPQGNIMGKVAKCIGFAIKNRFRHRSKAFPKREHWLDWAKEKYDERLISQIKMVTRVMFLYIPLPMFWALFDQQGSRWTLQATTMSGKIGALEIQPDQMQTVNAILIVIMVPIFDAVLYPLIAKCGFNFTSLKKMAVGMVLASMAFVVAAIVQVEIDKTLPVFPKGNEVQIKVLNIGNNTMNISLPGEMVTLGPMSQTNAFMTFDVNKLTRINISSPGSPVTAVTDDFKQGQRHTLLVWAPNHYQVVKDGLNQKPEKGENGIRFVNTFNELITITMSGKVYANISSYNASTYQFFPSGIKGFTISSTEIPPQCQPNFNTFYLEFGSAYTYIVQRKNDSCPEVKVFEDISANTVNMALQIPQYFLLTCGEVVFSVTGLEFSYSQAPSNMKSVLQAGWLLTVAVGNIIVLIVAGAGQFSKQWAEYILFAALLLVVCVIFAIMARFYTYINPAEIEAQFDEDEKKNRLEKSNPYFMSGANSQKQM
Description: Intestinal organoids – Transport & Metabolism fructose uptake assay. Inhibitors were added 10min prior to addition of glucose and 30min prior to addition of fructose. Following incubation, substrate/inhibitor solutions were removed from intact organoids embedded in matrigel and matrigel droplets were washed three times with PBS.
Subsequently, matrigel was dissolved by addition of cold PBS and organoids were resuspended and centrifuged (300g, 10min). For “broken up” organoids, dissociated organoids were centrifuged (300g, 3min) and washed three times with PBS. During these steps, PBS for washing contained glucose and fructose, respectively, to avoid excessive transport of substrates out of the cells. Organoid pellets were resuspended in a lysis buffer containing 150mM NaCl, 50 mM Tris-HCl, 1% Igepal CA-630, 0.5% DCA and a protease inhibitor mix, and incubated for 20min on ice. 3 ml of Bioscint® Scintillation solution (National Diagnostics) were added to the cell lysate and radiolabeled substrate taken up by organoids was quantified using a liquid scintillation counter (PerkinElmer). […]
1.7. […]
Transport activity was assessed by competitive inhibition of the uptake of radiolabeled dipeptide glycyl-sarcosin (Gly-Sar), a hydrolysis-resistant model substrate of Pept1. […]
were assessed using (non-labeled) substrates (Gly-Sar) and 14C-radiolabeled substrate tracers (American Radiolabeled Chemicals). […]

[5] = test system: murine large intestinal organoids; assay: Acylcarnitine profiles after butyrate (LC-MS/MS); assay type: cell-based, mouse; conditions: 1mM butyrate with 100µM carnitine, measured 0, 5, 10, 30, 60 min
Description: as §1, §2, §3, §4, §5, §6, §7, §8, §9, §10

[6] = humans; ref Becker et al., 2015; cited from earlier work
Description: as §18

human duodenal organoids [7] = assay: Live-cell imaging of intracellular acidification (BCECF-AM), human organoids; assay type: cell-based; conditions: BCECF-AM 1μM, ratio F(λex490nm)/F(λex450nm); 50mM Gly-Sar, 50mM Gly-Gly, 5mM Cefadroxil, 40µM CCCP; 50mM glucose, 50mM fructose as negative controls; minimum 6 experiments, representative courses
Description: as §17
For peptide and drug transport studies, human organoids were cultivated for 7-9 days after passaging. […]
as §13
For live-cell imaging of intracellular acidification, organoids were incubated with 1μM BCECF-AM (Life Technologies) in HEPES-saline buffer containing 0.01% pluronic F127, 375μM eserine and 2mM […]
substances used were: 50mM Gly-Sar, 50mM Gly-Gly, 5mM Cefadroxil, 40µM CCCP (Sigma), 100µM Amilorid, and 50µM S1611 (Sanofi Aventis). Image series were captured using a Leica […]
and the fluorescence ratio F(λex490nm)/ F(λex450nm) was calculated. Calculations and imaging data analyses were performed using the Leica Application Suite Advanced Fluorescence software. All imaging experiments were performed minimum 6 times and representative time courses are depicted in the manuscript. Imaging of intracellular acidification was performed as indicated in murine small intestinal Wt organoids or in human duodenal organoids.

[8] = test system: murine small intestinal organoids; assay: Amino acid and acylcarnitine levels after insulin (LC-MS/MS); assay type: cell-based, mouse; conditions: 1 μM insulin, measured after 0, 30, 60, 120 min
Description: For live-cell imaging of intracellular calcium concentrations, organoids were loaded with 7μM Fura-2
AM (Life Technologies) in HEPES-saline buffer as used for imaging of intracellular acidification for
20 min at 37 °C and then washed 5 times with PBS (pH 7.4; 37 °C). Concentrations of substances used were: 100µM ATP (Sigma), 50mM glucose, and 50mM fructose. Using a Leica DMI6000 B inverted
fluorescence microscope (Leica Microsystems) at 20× magnification, images were captured every 5-
10s. The fluorescence ratio F(λex340nm)/ F(λex380nm) was calculated and imaging data were
Quantification of amino acid and acylcarnitine concentrations using targeted LC-MS/MS
Metabolite analyses were performed with samples from three different experiments: 1.
incubated for the indicated times. […] Addition of butyrate: murine colonic organoids were grown for 6 days in IC. 100µM carnitine and 1mM butyrate were added and organoids were incubated for the indicated times. […]
palmitate. Medium from untreated organoids was measured to verify organoids as source of […]
acylcarnitine concentrations, quantitative LC -MS/MS was applied as described previously [6, 7]. […]

Compound: Nc1ncnc2c1ncn2[C@@H]1O[C@H](COP(=O)(O)OP(=O)(O)OP(=O)(O)O)[C@@H](O)[C@H]1O [ATP]
- intracellular calcium response (human duodenal organoids [1]): increases in intracellular calcium

Compound: N=C(N)NC(=O)c1nc(Cl)c(N)nc1N [Amiloride]
- recovery of intracellular pH following exposure to Gly-Sar [2]: prevented the recovery of intracellular pH to basal levels
- course of intracellular pH in the observed time span after Gly-Sar ([2]; Figures 3G,H): continuous influx of protons

Compound: C[C@@H]1NC(=O)[C@H](CC(=O)O)NC(=O)CNC(=O)[C@H](CCCNC(=N)N)NC(=O)[C@@H](C)N(C)C(=O)[C@H](C)N(C)C1=O [P2]
- peptide transporter-mediated uptake judged by competitive inhibition of radiolabeled Gly-Sar uptake (Pept1 [3]): actively transported independently of Pept1
- permeability in Caco-2 assay (Caco-2; ref Weinmuller et al., 2017): lacked permeability

Compound: C[C@@H]1NC(=O)[C@H](C)NC(=O)[C@@H](C)N(C)C(=O)[C@H](C)N(C)C(=O)[C@H](C)NC(=O)[C@H](C)NC1=O [P3]
- peptide transporter-mediated uptake judged by competitive inhibition of radiolabeled Gly-Sar uptake (Pept1 [3]): no signs of peptide transporter-mediated uptake
- competitive inhibition of radiolabeled Gly-Sar uptake (PEPT1 [4]; 13mM cyclic hexapeptide (solubilized in DMSO) versus 5mM Gly-Sar (14C tracer 1mM), human duodenal organoids, Figure 2H): significantly reduce radiolabeled Gly-Sar uptake
- permeability in Caco-2 assay (Caco-2; library of N-methylated alanine peptides, ref Ovadia et al., 2011): highly permeable

Compound: CCCC(=O)O [butyrate]
- acetylcarnitine, butyrylcarnitine and palmitoylcarnitine concentrations [5]: increasing to maximal concentrations 60 min after butyrate addition

Compound: Cilengitide
- half-life of excretion [6]: 4 h
- metabolic stability [6]: completely stable

Compound: glycyl-glycine [Gly-Gly]
- competitive inhibition of radiolabeled Gly-Sar uptake (PEPT1 [4]; 5mM Gly-Gly versus 5mM Gly-Sar (14C tracer 1mM), intact and broken up human duodenal organoids): significant reduction of Gly-Sar uptake in both approaches
- intracellular acidification (human duodenal organoids [7]): intracellular acidification was demonstrated

Compound: insulin
- tau-methylhistidine and propionylcarnitine (C3) after insulin stimulation [8]: diminished with lowest levels observed 60 min after insulin stimulation
